Tests used:
Format in all cases: cell-based
[1] = system: Notch signalling in CHO-N2 (N27#11) cells expressing full length human Notch2; assay: CHO-N2 (N27) luciferase reporter assay, CHO-Delta antagonist assay; conditions: soluble protein, N27#11 reporter cells co-cultured with CHO-Delta cells overnight
From the text: An adenovirus major late promoter TATA-box motif with BglII and HindIII cohesive ends was generated as follows:
This was cloned into plasmid pGL3-Basic (Promega) between the BgiII and HindIII sites to generate plasmid pGL3-AdTATA.
A TP1 promoter sequence (TP1; equivalent to 2 CBF1 repeats) with BamH1 and BglII cohesive ends was generated as follows:
This sequence was pentamerised by repeated insertion into a BglII site and the resulting TP1 pentamer (equivalent to 10 CBF1 repeats) was inserted into pGL3-AdTATA at the BglII site to generate plasmid pLOR91.
A cDNA clone spanning the complete coding sequence of the human Notch2 gene (see, eg GenBank Accession No AF315356) was constructed as follows. A 3′ cDNA fragment encoding the entire intracellular domain and a portion of the extracellular domain was isolated from a human placental cDNA library (OriGene Technologies Ltd., USA) using a PCR-based screening strategy. […]
CHO-Delta cells (as described above) were maintained in DMEM plus 10% (HI)FCS plus glutamine plus P/S plus 0.5 mg/ml G418. Just prior to use the cells were removed from a T80 flask using 0.02% EDTA solution (Sigma), spun down and resuspended in 10 ml DMEM plus 10%(HI)FCS plus glutamine plus P/S. 10 μl of cells were counted and the cell density was adjusted to 5.0×10^5 cells/ml with fresh DMEM plus 10%(HI)FCS plus glutamine plus P/S. […]

[2] = system: Notch signalling from Jagged1 (A20-Jagged cells, human Jagged1); assay: Antagonism of A20-Jagged Notch signalling (N27#11 luciferase reporter); conditions: A20-Jagged cells 1×10^5 per well; IgG4 as control
From the text: (§1) The IVS, IRES, Neo and pA elements were removed from plasmid pIRESneo2 (Clontech, USA) and inserted into a pUC cloning vector downstream of a chicken beta-actin promoter (eg see GenBank Accession No E02199). Mouse Delta-1 cDNA (eg see GenBank Accession No NM_007865) was inserted between the actin promoter and IVS elements and a sequence with multiple stop codons in all three reading frames was inserted between the Delta and IVS elements.
(§2) The resulting construct was transfected into A20 cells using electroporation and G418 to provide A20 cells expressing mouse Delta1 on their surfaces (A20-Delta).
Corresponding cells (A20-Jagged) were prepared using human Jagged1 cDNA (see e.g. GenBank Accession No U61276).
(§3) The procedure of Example was repeated using A20-Delta or A20-Jagged cells (1×10^5 per well) in place of CHO-Delta cells. IgG4 was used as a control.

[3] = system: Notch signalling from Delta (A20-Delta cells, mouse Delta1); assay: Antagonism of A20-Delta Notch signalling (N27#11 luciferase reporter); conditions: A20-Delta cells 1×10^5 per well; IgG4 as control
From the text: as §1, §2, §3

| Substance | inhibition of Notch signalling from CHO-Delta cells [1] | inhibition of Notch signalling from Jagged1 [2] | inhibition of Notch signalling from Delta [3] |
| --- | --- | --- | --- |
| hDelta1-IgG4Fc: fusion protein comprising the extracellular domain of human Delta1 fused to the Fc domain of human IgG4 (SEQ ID NO: 5) | inhibition of Notch signalling | able to inhbit Notch signalling | able to inhbit Notch signalling |
| hJagged1EGF1&2-IgG4Fc: human jagged1 sequence up to the end of EGF2 (leader, amino terminal, DSL, EGF1+2) fused to the Fc domain of human IgG4 (SEQ ID NO: 10) | substantially the same inhibition of Notch signalling |  |  |
